Measured values: PubChem BioAssay AID248 (DTP/NCI, 2004)
“And” between values parts separate entries of the source, which are not always exact repeats. Equal values may be shown once. Inconclusive results and toxic doses are left out. Rule as the data show it: active = T/C of 150% or more; inactive = T/C below 125%.

Test system: L1210 leukemia ip in BDF1 mice, survival T/C
Test: NCI In Vivo Anticancer Drug Screen. Data for tumor model L1210 Leukemia (intraperitoneal) in B6D2F1 (BDF1) mice
Details: endpoint: mean survival time, higher = longer survival
Outline: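 Ratio derived from survival: compound-dosed mice over vehicle-dosed mice, all bearing a transplantable tumor.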

[1] = dose: 100.0 mg/kg/injection, schedule: Q04DX003 (ip), vehicle: saline with Tween-80
[2] = dose: 200.0 mg/kg/injection, schedule: Q04DX003 (ip), vehicle: saline with Tween-80
[3] = dose: 100.0 mg/kg/injection, schedule: Q01DX001 (ip), vehicle: saline
[4] = dose: 200.0 mg/kg/injection, schedule: Q01DX001 (ip), vehicle: saline
[5] = dose: 400.0 mg/kg/injection, schedule: Q01DX001 (ip), vehicle: saline
[6] = dose: 100.0 mg/kg/injection, schedule: Q01DX009 (ip), vehicle: Klucel (hydroxypropylcellulose) (HPC)
[7] = dose: 200.0 mg/kg/injection, schedule: Q01DX009 (ip), vehicle: Klucel (hydroxypropylcellulose) (HPC)
[8] = dose: 400.0 mg/kg/injection, schedule: Q01DX009 (ip), vehicle: Klucel (hydroxypropylcellulose) (HPC)
[9] = dose: 100.0 mg/kg/injection, schedule: Q01DX009 (ip), vehicle: saline with Tween-80
[10] = dose: 400.0 mg/kg/injection, schedule: Q01DX009 (ip), vehicle: saline with Tween-80
[11] = dose: 12.5 mg/kg/injection, schedule: Q01DX009 (ip), vehicle: saline with Tween-80
[12] = dose: 25.0 mg/kg/injection, schedule: Q01DX009 (ip), vehicle: saline with Tween-80
[13] = dose: 50.0 mg/kg/injection, schedule: Q01DX009 (ip), vehicle: saline with Tween-80
[14] = dose: 400.0 mg/kg/injection, schedule: Q04DX003 (ip), vehicle: saline with Tween-80
[15] = dose: 50.0 mg/kg/injection, schedule: Q01DX001 (ip), vehicle: saline
[16] = dose: 100.0 mg/kg/injection, schedule: Q04DX003 (ip), vehicle: saline
[17] = dose: 200.0 mg/kg/injection, schedule: Q04DX003 (ip), vehicle: saline
[18] = dose: 400.0 mg/kg/injection, schedule: Q04DX003 (ip), vehicle: saline

Measured: T/C

c1ccc2c(c1)CC1Sc3ccccc3N=C21 (stereo not given)
inactive: [1] 103 % of control | [2] 95 % of control

CC1=C2C(=C[C@@](C)(CO)[C@@H]2O)C(=O)[C@](C)(O)C12CC2
inactive: dose: 75.0 micrograms/kg/injection, schedule: Q01DX Z (ip), vehicle: saline 103 % of control | dose: 150.0 micrograms/kg/injection, schedule: Q01DX Z (ip), vehicle: saline 117 % of control | dose: 300.0 micrograms/kg/injection, schedule: Q01DX Z (ip), vehicle: saline 117 % of control | dose: 600.0 micrograms/kg/injection, schedule: Q01DX Z (ip), vehicle: saline 100 % of control

CC(=O)OCc1ccc(/C=N/N2C(=O)CSC2=S)o1
inactive: dose: 75.0 mg/kg/injection, schedule: Q01DX001 (ip), vehicle: carboxymethylcellulose (CMC) 105 % of control | dose: 150.0 mg/kg/injection, schedule: Q01DX001 (ip), vehicle: carboxymethylcellulose (CMC) 100 % of control | dose: 300.0 mg/kg/injection, schedule: Q01DX001 (ip), vehicle: carboxymethylcellulose (CMC) 97 % of control

[I][Bi]([I])[I]
inactive: dose: 50.0 mg/kg/injection, schedule: Q01DX001 (ip), vehicle: carboxymethylcellulose (CMC) 114 % of control | dose: 100.0 mg/kg/injection, schedule: Q01DX001 (ip), vehicle: carboxymethylcellulose (CMC) 105 % of control | [3] 108 % of control | dose: 200.0 mg/kg/injection, schedule: Q01DX001 (ip), vehicle: carboxymethylcellulose (CMC) 102 % of control | [4] 94 % of control | [5] 97 % of control

Nc1ncnc2nc(C3OC(CO)C(O)C3O)[nH]c12 (stereo not given)
inactive: dose: 100.0 mg/kg/injection, schedule: Q01DX005 (ip), vehicle: saline 96 % of control | dose: 200.0 mg/kg/injection, schedule: Q01DX005 (ip), vehicle: saline 96 % of control

O=C1OCc2c1cc1n(c2=O)Cc2cc3ccccc3nc2-1
inactive: dose: 100.0 mg/kg/injection, schedule: Q01DX001 (ip), vehicle: Klucel (hydroxypropylcellulose) (HPC) 89 % of control | dose: 200.0 mg/kg/injection, schedule: Q01DX001 (ip), vehicle: Klucel (hydroxypropylcellulose) (HPC) 89 % of control | dose: 400.0 mg/kg/injection, schedule: Q01DX001 (ip), vehicle: Klucel (hydroxypropylcellulose) (HPC) 103 % of control

CC(O)c1cccc(NC(=O)Nc2ccc(Cl)c(Cl)c2)c1 (stereo not given)
inactive: [6] 96 % of control | [7] 98 % of control | [8] 96 % of control

COc1ccc(-c2c(-c3ccccc3)oc3ccc4ccccc4c23)cc1
inactive: [9] 87 % of control | dose: 200.0 mg/kg/injection, schedule: Q01DX009 (ip), vehicle: saline with Tween-80 93 % of control | [10] 92 % of control

CC(=O)NC1C(OC(C)=O)OC(COC(c2ccccc2)(c2ccccc2)c2ccccc2)C(O)C1OC(C)=O (stereo not given)
inactive: dose: 6.25 mg/kg/injection, schedule: Q01DX009 (ip), vehicle: saline with Tween-80 96 % of control | [11] 93 % of control | [12] 93 % of control | dose: 25.0 mg/kg/injection, schedule: Q04DX003 (ip), vehicle: saline with Tween-80 109 % of control | [13] 93 % of control | dose: 50.0 mg/kg/injection, schedule: Q04DX003 (ip), vehicle: saline with Tween-80 121 % of control | [2] 91 % of control | [14] 88 % of control

Nc1ccn(C2CCCO2)c(=O)n1 (stereo not given)
inactive: [15] 101 % of control | [3] 95 % of control | [4] 95 % of control | [5] 95 % of control

CC1CCC2C(=CC(=O)CC2(C)C)C1 (stereo not given)
inactive: [3] 109 % of control | [16] 108 % of control | [4] 101 % of control | [17] 104 % of control | [5] 96 % of control | [18] 103 % of control

COc1ccccc1OCC(O)COc1ccccc1OC
inactive: [11] 92 % of control | dose: 12.5 mg/kg/injection, schedule: Q04DX003 (ip), vehicle: saline 106 % of control | [12] 95 % of control | dose: 25.0 mg/kg/injection, schedule: Q04DX003 (ip), vehicle: saline 105 % of control | [13] 94 % of control | dose: 50.0 mg/kg/injection, schedule: Q04DX003 (ip), vehicle: saline 105 % of control | [3] 104 % of control | [4] 100 % of control | [5] 102 % of control

ClC1=C(Cl)C2(Cl)C3(Cl)C(Cl)=C(Cl)C(Cl)(C34OCCO4)C2(Cl)C12OCCO2 (stereo not given)
inactive: [15] 107 % of control | [3] 105 % of control | dose: 100.0 mg/kg/injection, schedule: Q01DX009 (ip), vehicle: saline 90 % of control | [16] 98 % of control | [4] 94 % of control | dose: 200.0 mg/kg/injection, schedule: Q01DX009 (ip), vehicle: saline 93 % of control | [17] 97 % of control | [5] 100 % of control | dose: 400.0 mg/kg/injection, schedule: Q01DX009 (ip), vehicle: saline 92 % of control | [18] 103 % of control

COc1ccc(OC(=O)OCc2ccc(OC)c(OC)c2)cc1
inactive: [1] 102 % of control | [2] 96 % of control | [14] 96 % of control

CCOC(=O)/C(C(=S)NC(=O)c1ccc(Br)cc1)=C(/C)N
inactive: dose: 100.0 mg/kg/injection, schedule: Q04DX003 (ip), vehicle: carboxymethylcellulose (CMC) 95 % of control | dose: 200.0 mg/kg/injection, schedule: Q04DX003 (ip), vehicle: carboxymethylcellulose (CMC) 90 % of control | dose: 400.0 mg/kg/injection, schedule: Q04DX003 (ip), vehicle: carboxymethylcellulose (CMC) 98 % of control

C[CH2][Ge]([CH2]C)[O][Ge]([CH2]C)[CH2]C.C[CH2][Ge]([CH2]C)[O][Ge]([CH2]C)[CH2]C
inactive: dose: 5.0 mg/kg/injection, schedule: Q04DX002 (ip), vehicle: saline with Tween-80 96 % of control | dose: 10.0 mg/kg/injection, schedule: Q04DX002 (ip), vehicle: saline with Tween-80 96 % of control | dose: 20.0 mg/kg/injection, schedule: Q04DX002 (ip), vehicle: saline with Tween-80 100 % of control

Cc1ccccc1NC(=S)N1CCOCC1
inactive: [6] 105 % of control | [7] 108 % of control | [8] 111 % of control

OC1/C=C\CCCCC1 (stereo not given)
inactive: [3] 98 % of control | [4] 93 % of control | [5] 98 % of control

C/C=C(/Cl)c1c(C)cc(C)cc1C
inactive: [12] 91 % of control | [13] 98 % of control | [9] 89 % of control and 91 % of control | [1] 101 % of control | [2] 98 % of control | [10] 98 % of control | [14] 101 % of control

CCCCCCCCCCCCCCCCCCCC
inactive: dose: 25.0 mg/kg/injection, schedule: Q01DX009 (ip), vehicle: other 109 % of control | dose: 50.0 mg/kg/injection, schedule: Q01DX009 (ip), vehicle: other 101 % of control | dose: 100.0 mg/kg/injection, schedule: Q01DX009 (ip), vehicle: other 93 % of control

O=C1CCCCC1O (stereo not given)
inactive: dose: 100.0 mg/kg/injection, schedule: Q01DX001 (ip), vehicle: other 116 % of control | dose: 200.0 mg/kg/injection, schedule: Q01DX001 (ip), vehicle: other 103 % of control | dose: 400.0 mg/kg/injection, schedule: Q01DX001 (ip), vehicle: other 95 % of control

C[N+](C)(C)C(=Nc1ccccc1)c1ccccc1
inactive: dose: 12.5 mg/kg/injection, schedule: Q01DX009 (ip), vehicle: Klucel (hydroxypropylcellulose) (HPC) 100 % of control | dose: 25.0 mg/kg/injection, schedule: Q01DX009 (ip), vehicle: Klucel (hydroxypropylcellulose) (HPC) 96 % of control | dose: 25.0 mg/kg/injection, schedule: Q04DX003 (ip), vehicle: Klucel (hydroxypropylcellulose) (HPC) 108 % of control | dose: 50.0 mg/kg/injection, schedule: Q01DX009 (ip), vehicle: Klucel (hydroxypropylcellulose) (HPC) 100 % of control and 105 % of control | dose: 50.0 mg/kg/injection, schedule: Q04DX003 (ip), vehicle: Klucel (hydroxypropylcellulose) (HPC) 94 % of control | dose: 100.0 mg/kg/injection, schedule: Q04DX003 (ip), vehicle: Klucel (hydroxypropylcellulose) (HPC) 100 % of control

O=c1cccc(CCCCCCc2cccc(=O)[nH]2)[nH]1
inactive: [3] 106 % of control | [4] 95 % of control | [5] 96 % of control
